According to ChEMBL document CHEMBL3885881, “DrugMatrix”:

Organism: Rattus norvegicus
Test: DrugMatrix - Regimen: Daily Repeat
Format: toxicity, organism-based, Sprague-Dawley
Design: regimen Daily Repeat, gender Male, age 6-8 weeks
Details: in vivo, po, 0 mg/kg, route oral GAVAGE, dose level Control, vehicle .5 % CMC; for ABSOLUTE BASOPHIL / ABSOLUTE EOSINOPHIL / ABSOLUTE LYMPHOCYTE / ABSOLUTE MONOCYTE / ABSOLUTE SEGMENTED NEUTROPHIL / BASOPHIL / EOSINOPHIL / ERYTHROCYTE COUNT / HEMATOCRIT / HEMOGLOBIN / LEUKOCYTE COUNT / LYMPHOCYTE / MEAN CORPUSCULAR HEMOGLOBIN / MEAN CORPUSCULAR HEMOGLOBIN CONCENTRATION / MEAN CORPUSCULAR VOLUME / MONOCYTE / NEUTROPHIL / NUCLEATED RED BLOOD CELLS / PLATELET COUNT: tissue Blood; for ALANINE AMINOTRANSFERASE / ALBUMIN / ALKALINE PHOSPHATASE / ASPARTATE AMINOTRANSFERASE / BLOOD UREA NITROGEN / CARBON DIOXIDE / CHLORIDE / CHOLESTEROL / CREATININE / GLUCOSE / LACTATE DEHYDROGENASE / LIPASE / PHOSPHORUS / POTASSIUM / SODIUM / TOTAL BILIRUBIN / TOTAL PROTEIN / URIC ACID: tissue Plasma

## ClC(Cl)Br [BROMODICHLOROMETHANE]
72 h, time 3 day
  ABSOLUTE BASOPHIL: 0 CELLS/uL
  ABSOLUTE EOSINOPHIL: 279.83 CELLS/uL
  ABSOLUTE LYMPHOCYTE: 13152.5 CELLS/uL
  ABSOLUTE MONOCYTE: 1013.83 CELLS/uL
  ABSOLUTE SEGMENTED NEUTROPHIL: 2420.5 CELLS/uL
  BASOPHIL: 0%
  EOSINOPHIL: 1.67%
  ERYTHROCYTE COUNT: 5.26 x10E6/uL
  HEMATOCRIT: 32.22%
  HEMOGLOBIN: 12.02 G/DL
  LEUKOCYTE COUNT: 16.87 x10E3/uL
  LYMPHOCYTE: 77.83%
  MEAN CORPUSCULAR HEMOGLOBIN: 22.93 pg
  MEAN CORPUSCULAR HEMOGLOBIN CONCENTRATION: 37.32 G/DL
  MEAN CORPUSCULAR VOLUME: 61.4 fL
  MONOCYTE: 6%
  NEUTROPHIL: 14.5%
  NUCLEATED RED BLOOD CELLS: 0 /100WBC
  PLATELET COUNT: 1122.17 x10E3/uL
  ALANINE AMINOTRANSFERASE: 55.67 u/L
  ALBUMIN: 4.35 G/DL
  ALKALINE PHOSPHATASE: 362.67 u/L
  ASPARTATE AMINOTRANSFERASE: 96 u/L
  BLOOD UREA NITROGEN: 18 mg/dL
  CARBON DIOXIDE: 27.5 mmol/L
  CHLORIDE: 100.17 MEQ/L
  CHOLESTEROL: 74.5 mg/dL
  CREATININE: 0.17 mg/dL
  GLUCOSE: 141.67 mg/dL
  LACTATE DEHYDROGENASE: 682.5 u/L
  LIPASE: 10 u/L
  PHOSPHORUS: 11.5 mg/dL
  POTASSIUM: 6.41 MEQ/L
  SODIUM: 141.2 MEQ/L
  TOTAL BILIRUBIN: 0.18 mg/dL
  TOTAL PROTEIN: 5.88 G/DL
  URIC ACID: 1.4 mg/dL
120 h, time 5 day
  ABSOLUTE BASOPHIL: 0 CELLS/uL
  ABSOLUTE EOSINOPHIL: 18.5 CELLS/uL
  ABSOLUTE LYMPHOCYTE: 8146.83 CELLS/uL
  ABSOLUTE MONOCYTE: 204.83 CELLS/uL
  ABSOLUTE SEGMENTED NEUTROPHIL: 1329.83 CELLS/uL
  BASOPHIL: 0%
  EOSINOPHIL: 0.17%
  ERYTHROCYTE COUNT: 5.37 x10E6/uL
  HEMATOCRIT: 33.17%
  HEMOGLOBIN: 12.07 G/DL
  LEUKOCYTE COUNT: 9.7 x10E3/uL
  LYMPHOCYTE: 85.33%
  MEAN CORPUSCULAR HEMOGLOBIN: 22.52 pg
  MEAN CORPUSCULAR HEMOGLOBIN CONCENTRATION: 36.42 G/DL
  MEAN CORPUSCULAR VOLUME: 61.78 fL
  MONOCYTE: 1.83%
  NEUTROPHIL: 12.67%
  NUCLEATED RED BLOOD CELLS: 0 /100WBC
  PLATELET COUNT: 907.5 x10E3/uL
  ALANINE AMINOTRANSFERASE: 58.5 u/L
  ALBUMIN: 4.4 G/DL
  ALKALINE PHOSPHATASE: 377.67 u/L
  ASPARTATE AMINOTRANSFERASE: 140.33 u/L
  BLOOD UREA NITROGEN: 15.33 mg/dL
  CARBON DIOXIDE: 32.17 mmol/L
  CHLORIDE: 100 MEQ/L
  CHOLESTEROL: 71.83 mg/dL
  CREATININE: 0.18 mg/dL
  GLUCOSE: 185 mg/dL
  LACTATE DEHYDROGENASE: 241.5 u/L
  LIPASE: 9.5 u/L
  PHOSPHORUS: 13.02 mg/dL
  POTASSIUM: 6.45 MEQ/L
  SODIUM: 143.45 MEQ/L
  TOTAL BILIRUBIN: 0.22 mg/dL
  TOTAL PROTEIN: 6.1 G/DL
  URIC ACID: 1 mg/dL
[…], time 14 day
  ABSOLUTE BASOPHIL: 0 CELLS/uL
  ABSOLUTE EOSINOPHIL: 117.17 CELLS/uL
  ABSOLUTE LYMPHOCYTE: 13562 CELLS/uL
  ABSOLUTE MONOCYTE: 534.83 CELLS/uL
  ABSOLUTE SEGMENTED NEUTROPHIL: 2486 CELLS/uL
  BASOPHIL: 0%
  EOSINOPHIL: 0.83%
  ERYTHROCYTE COUNT: 6.14 x10E6/uL
  HEMATOCRIT: 36.87%
  HEMOGLOBIN: 13.87 G/DL
  LEUKOCYTE COUNT: 16.7 x10E3/uL
  LYMPHOCYTE: 81%
  MEAN CORPUSCULAR HEMOGLOBIN: 22.63 pg
  MEAN CORPUSCULAR HEMOGLOBIN CONCENTRATION: 37.62 G/DL
  MEAN CORPUSCULAR VOLUME: 60.15 fL
  MONOCYTE: 3.17%
  NEUTROPHIL: 15%
  NUCLEATED RED BLOOD CELLS: 0 /100WBC
  PLATELET COUNT: 974.83 x10E3/uL
  ALANINE AMINOTRANSFERASE: 52.33 u/L
  ALBUMIN: 4.48 G/DL
  ALKALINE PHOSPHATASE: 346.17 u/L
  ASPARTATE AMINOTRANSFERASE: 81 u/L
  BLOOD UREA NITROGEN: 15.67 mg/dL
  CARBON DIOXIDE: 34.33 mmol/L
  CHLORIDE: 100.17 MEQ/L
  CHOLESTEROL: 70.83 mg/dL
  CREATININE: 0.22 mg/dL
  GLUCOSE: 141.17 mg/dL
  LACTATE DEHYDROGENASE: 121.33 u/L
  LIPASE: 8.33 u/L
  PHOSPHORUS: 9.97 mg/dL
  POTASSIUM: 6.4 MEQ/L
  SODIUM: 143.72 MEQ/L
  TOTAL BILIRUBIN: 0.22 mg/dL
  TOTAL PROTEIN: 6.45 G/DL
  URIC ACID: 1.25 mg/dL
